The values that follow come from publication PMC8341910, “Structural and biophysical insights into the mode of covalent binding of rationally designed potent BMX inhibitors” (RSC Chemical Biology, 2020).

A word on the GI50: it is the concentration giving 50% growth inhibition. The low end stands for more potent growth inhibition, the high end for less potent growth inhibition.

One assay concerns the target AKT3 (Homo sapiens, UniProt Q9Y243). The experiment in a line: KINOMEscan binding. The note with it: read-out: % Ctrl AKT3.
In a further assay the target is PTK2 (Homo sapiens, UniProt Q05397). The experiment in a line: KINOMEscan binding. Conditions: read-out: % Ctrl PTK2.
Another assay has as its target STK11 (Homo sapiens, UniProt Q15831). The experiment in a line: KINOMEscan binding. The note with it: read-out: % Ctrl STK11.
The target in another assay is PIK3CG (Homo sapiens, UniProt P48736). The experiment in a line: KINOMEscan binding. Conditions: read-out: % Ctrl PIK3CG.
Chain of PIK3CG (P48736 whole entry): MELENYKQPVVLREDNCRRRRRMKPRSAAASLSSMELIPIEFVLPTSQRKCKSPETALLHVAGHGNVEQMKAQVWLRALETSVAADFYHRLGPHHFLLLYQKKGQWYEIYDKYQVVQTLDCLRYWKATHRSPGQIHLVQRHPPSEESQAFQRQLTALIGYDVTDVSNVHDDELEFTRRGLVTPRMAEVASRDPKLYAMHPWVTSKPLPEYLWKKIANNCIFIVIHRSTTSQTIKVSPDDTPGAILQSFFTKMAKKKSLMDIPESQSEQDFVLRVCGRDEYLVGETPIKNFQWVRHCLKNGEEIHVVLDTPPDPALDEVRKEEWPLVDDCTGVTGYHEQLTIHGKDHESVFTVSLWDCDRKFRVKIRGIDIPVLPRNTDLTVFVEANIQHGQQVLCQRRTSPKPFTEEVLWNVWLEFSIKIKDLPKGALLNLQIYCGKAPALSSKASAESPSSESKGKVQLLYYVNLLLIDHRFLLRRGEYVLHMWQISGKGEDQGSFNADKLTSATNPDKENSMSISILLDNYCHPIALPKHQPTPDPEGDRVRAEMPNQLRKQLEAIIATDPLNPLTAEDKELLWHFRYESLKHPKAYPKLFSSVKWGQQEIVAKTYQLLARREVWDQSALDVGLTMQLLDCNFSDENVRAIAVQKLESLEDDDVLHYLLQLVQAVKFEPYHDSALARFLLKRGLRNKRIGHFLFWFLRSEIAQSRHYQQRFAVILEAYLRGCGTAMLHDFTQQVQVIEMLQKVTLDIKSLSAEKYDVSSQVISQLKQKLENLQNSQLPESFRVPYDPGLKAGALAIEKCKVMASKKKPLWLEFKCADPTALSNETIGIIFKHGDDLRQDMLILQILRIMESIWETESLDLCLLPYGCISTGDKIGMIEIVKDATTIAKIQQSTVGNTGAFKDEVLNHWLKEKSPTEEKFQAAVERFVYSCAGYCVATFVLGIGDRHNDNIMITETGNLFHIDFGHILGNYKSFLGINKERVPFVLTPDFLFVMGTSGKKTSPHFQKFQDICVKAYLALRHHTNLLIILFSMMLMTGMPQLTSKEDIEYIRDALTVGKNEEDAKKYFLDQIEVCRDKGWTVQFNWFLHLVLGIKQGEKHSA
The next assay has as its target ERBB4 (Homo sapiens, UniProt Q15303). The experiment in a line: KINOMEscan binding. Conditions: read-out: % Ctrl ERBB4.
In a further assay the target is AKT2 (Homo sapiens, UniProt P31751). The experiment in a line: KINOMEscan binding. Conditions: read-out: % Ctrl AKT2.
Chain of AKT2 (P31751 whole entry): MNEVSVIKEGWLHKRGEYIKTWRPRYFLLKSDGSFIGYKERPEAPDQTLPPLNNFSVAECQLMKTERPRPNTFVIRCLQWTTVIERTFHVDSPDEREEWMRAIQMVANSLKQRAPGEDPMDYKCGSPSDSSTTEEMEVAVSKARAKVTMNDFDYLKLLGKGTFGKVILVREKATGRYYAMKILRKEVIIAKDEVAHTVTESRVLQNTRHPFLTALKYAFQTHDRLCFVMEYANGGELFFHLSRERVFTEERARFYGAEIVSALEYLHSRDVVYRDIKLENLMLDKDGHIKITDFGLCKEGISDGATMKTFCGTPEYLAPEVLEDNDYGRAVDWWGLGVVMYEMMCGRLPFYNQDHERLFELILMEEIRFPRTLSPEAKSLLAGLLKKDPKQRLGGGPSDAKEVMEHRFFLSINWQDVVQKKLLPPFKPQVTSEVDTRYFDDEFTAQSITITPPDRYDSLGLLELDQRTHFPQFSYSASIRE
For a further assay, the target named is YES1 (Homo sapiens, UniProt P07947). The experiment in a line: KINOMEscan binding. Conditions: read-out: % Ctrl YES1.
Chain of YES1 (P07947 whole entry): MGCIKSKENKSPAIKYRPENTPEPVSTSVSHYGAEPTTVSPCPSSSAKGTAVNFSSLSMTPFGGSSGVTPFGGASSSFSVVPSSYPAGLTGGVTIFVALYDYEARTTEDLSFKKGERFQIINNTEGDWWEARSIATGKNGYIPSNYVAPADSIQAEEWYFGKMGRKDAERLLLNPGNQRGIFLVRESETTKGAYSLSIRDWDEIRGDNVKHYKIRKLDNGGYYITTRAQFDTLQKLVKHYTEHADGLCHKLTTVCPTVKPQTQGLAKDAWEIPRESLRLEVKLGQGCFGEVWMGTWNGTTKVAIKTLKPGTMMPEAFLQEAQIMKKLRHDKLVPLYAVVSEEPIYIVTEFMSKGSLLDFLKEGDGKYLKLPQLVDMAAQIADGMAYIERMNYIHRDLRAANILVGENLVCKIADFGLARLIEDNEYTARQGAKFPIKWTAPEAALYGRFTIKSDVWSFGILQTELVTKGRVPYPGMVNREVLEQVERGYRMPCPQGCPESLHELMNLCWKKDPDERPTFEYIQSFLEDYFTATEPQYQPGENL
The target of assay [1] is TYK2(JH1domain-catalytic) (Homo sapiens, UniProt P29597). The experiment in a line: KINOMEscan binding. Conditions: read-out: % Ctrl TYK2(JH1domain-catalytic).
Chain of TYK2(JH1domain-catalytic) (P29597 889-1187 limits assumed): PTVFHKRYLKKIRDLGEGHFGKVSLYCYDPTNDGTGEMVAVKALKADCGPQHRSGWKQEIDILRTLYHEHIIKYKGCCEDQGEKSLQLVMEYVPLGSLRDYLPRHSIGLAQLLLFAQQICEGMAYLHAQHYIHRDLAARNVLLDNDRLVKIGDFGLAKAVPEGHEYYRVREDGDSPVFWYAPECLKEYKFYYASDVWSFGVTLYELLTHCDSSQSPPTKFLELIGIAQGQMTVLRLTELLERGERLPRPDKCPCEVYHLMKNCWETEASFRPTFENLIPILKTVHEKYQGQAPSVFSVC
Description: (§1) Therefore, we included the whole TEC, EGFR and JAK family in our screening, and the Src family and Lkb1, which also have a cysteine within the same sequence alignment. We also included kinases involved in upstream (Src, FAK, PI3K, mTOR, PDK1) and downstream (Akt, PAK1, TAM) regulation of BMX signaling pathway and non-receptor tyrosine protein kinase Abl.
(§2) Kinome selectivity was performed with DiscoverX KINOMEscan™ technology.
A further assay addresses T1, hBMX (Homo sapiens, UniProt P51813).
T1 construct: Crystallization, data collection, and structure determination of BMX catalytic domain in; made in house; host or cells: Sf-9 insect cells
The experiment in a line: Mass spectrometry of drug-conjugated hBMX. Conditions: 2.5 mM compound, room temperature, 30 min, PBS pH 7.4; MS/MS after digestion. How it is done: Mass spectrometry (MS) studies confirmed the covalent binding of JS24 at cysteine 496 of BMX. The truncated hBMX was analyzed by native MS and the protein mass found was 30899 Da (Fig. 2a). The protein was then treated with 2.5 mM of JS24 at room temperature for 30 min in PBS pH 7.4 and directly analyzed by denaturing MS. The protein was fully denatured and cleaned on a reverse phase column, discarding any non-specific binding, to retain only any covalently linked compound. The mass found upon incubation with JS24 is 31 424 Da, which is 525 Da larger than the apo-form of hBMX (Fig. 2b).
Fig. 2 Mass spectrometric analysis of BMX and JS24 conjugated to BMX. (a) Native MS analysis of hBMX. The measured molecular weight is indicated. […] The measured molecular weight is indicated. […]
The BMX enzyme system (Catalog. V4512) and the ADP-GloTM kinase assay were purchased from Promega Corporation (USA). […] Then, 10 µL of kinase detection reagent was added into the wells and incubated for 30 min to produce a luminescence signal. The signal was measured using an Infinite M200 Microplate Reader (Tecan Group Ltd, Switzerland), with an integration time of 0.250s. The observed rate constants for inhibition (kobs), at different inhibitor concentrations, were determined from the slope of a semi-logarithmic plot of inhibition versus time, and re-plotted against inhibitor concentration (nM). […]

The next assay concerns Jurkat. The experiment in a line: Multi cell line growth assay (CellTiter-Glo, 72 h). The assay is classed as cell-based, human. Conditions: Homo sapiens, Jurkat, Blood, ND = no growth inhibition observed. On the technique in general: Cellular ATP, detected with luciferase, serves as a proxy for viable cell number.
A further assay has as its system H1299. The experiment in a line: Multi cell line growth assay (CellTiter-Glo, 72 h). The assay is classed as cell-based, human. Conditions: Homo sapiens, NCI-H1299, Bone marrow (so in the source), ND = no growth inhibition observed.
The next assay relates to Kasumi. The experiment in a line: Multi cell line growth assay (CellTiter-Glo, 72 h). The class given is cell-based, human. Conditions: Homo sapiens, Blood, ND = no growth inhibition observed.
The test system of another assay is U-87MG. The experiment in a line: Multi cell line growth assay (CellTiter-Glo, 72 h). The assay is classed as cell-based. The note with it: Homo sapiens, Brain, ND = no growth inhibition observed.

Chain of ERBB4 (Q15303 26-1308): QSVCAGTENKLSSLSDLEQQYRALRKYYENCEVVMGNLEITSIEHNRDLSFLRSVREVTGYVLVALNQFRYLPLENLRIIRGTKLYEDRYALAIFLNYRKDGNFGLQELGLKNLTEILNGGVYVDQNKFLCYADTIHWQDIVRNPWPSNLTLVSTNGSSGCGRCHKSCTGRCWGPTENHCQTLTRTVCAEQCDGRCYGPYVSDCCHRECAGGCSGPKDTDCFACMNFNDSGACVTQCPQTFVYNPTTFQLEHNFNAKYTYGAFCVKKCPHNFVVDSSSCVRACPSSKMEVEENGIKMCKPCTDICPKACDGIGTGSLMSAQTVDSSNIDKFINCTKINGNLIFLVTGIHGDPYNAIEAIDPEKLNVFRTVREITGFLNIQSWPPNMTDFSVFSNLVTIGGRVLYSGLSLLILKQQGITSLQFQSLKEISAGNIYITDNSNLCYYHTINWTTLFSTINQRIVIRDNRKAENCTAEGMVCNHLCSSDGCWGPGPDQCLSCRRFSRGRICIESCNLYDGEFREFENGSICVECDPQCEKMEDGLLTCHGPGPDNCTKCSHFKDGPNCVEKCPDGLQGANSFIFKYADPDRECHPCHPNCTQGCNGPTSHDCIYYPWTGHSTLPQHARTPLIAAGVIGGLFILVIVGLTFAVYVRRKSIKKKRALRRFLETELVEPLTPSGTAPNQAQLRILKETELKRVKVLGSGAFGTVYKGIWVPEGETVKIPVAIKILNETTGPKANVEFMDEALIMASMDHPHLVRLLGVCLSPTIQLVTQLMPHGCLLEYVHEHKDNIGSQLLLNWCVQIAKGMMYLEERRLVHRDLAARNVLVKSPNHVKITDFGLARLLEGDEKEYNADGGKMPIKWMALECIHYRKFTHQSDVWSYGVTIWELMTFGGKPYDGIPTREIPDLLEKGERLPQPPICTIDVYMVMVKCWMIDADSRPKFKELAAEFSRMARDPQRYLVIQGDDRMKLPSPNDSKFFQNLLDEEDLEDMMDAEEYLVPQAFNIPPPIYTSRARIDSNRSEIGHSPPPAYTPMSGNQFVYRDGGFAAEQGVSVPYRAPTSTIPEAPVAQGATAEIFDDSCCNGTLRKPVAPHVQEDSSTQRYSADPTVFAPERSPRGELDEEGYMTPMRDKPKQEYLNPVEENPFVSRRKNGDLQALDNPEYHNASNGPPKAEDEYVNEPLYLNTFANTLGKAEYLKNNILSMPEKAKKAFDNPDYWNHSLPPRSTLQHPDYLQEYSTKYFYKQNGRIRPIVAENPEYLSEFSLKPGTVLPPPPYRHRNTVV
Chain of STK11 (Q15831 whole entry): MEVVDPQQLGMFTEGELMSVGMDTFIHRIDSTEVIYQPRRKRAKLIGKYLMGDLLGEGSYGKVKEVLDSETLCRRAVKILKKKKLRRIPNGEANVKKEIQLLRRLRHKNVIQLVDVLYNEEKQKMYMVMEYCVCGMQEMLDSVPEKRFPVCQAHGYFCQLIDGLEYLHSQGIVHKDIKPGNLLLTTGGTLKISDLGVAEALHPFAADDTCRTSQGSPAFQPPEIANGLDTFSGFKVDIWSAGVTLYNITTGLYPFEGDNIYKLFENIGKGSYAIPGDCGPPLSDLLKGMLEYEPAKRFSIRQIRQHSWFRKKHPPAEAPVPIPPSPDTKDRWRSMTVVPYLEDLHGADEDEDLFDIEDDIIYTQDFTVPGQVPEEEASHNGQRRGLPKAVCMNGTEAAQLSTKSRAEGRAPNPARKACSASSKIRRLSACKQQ
Chain of AKT3 (Q9Y243 whole entry): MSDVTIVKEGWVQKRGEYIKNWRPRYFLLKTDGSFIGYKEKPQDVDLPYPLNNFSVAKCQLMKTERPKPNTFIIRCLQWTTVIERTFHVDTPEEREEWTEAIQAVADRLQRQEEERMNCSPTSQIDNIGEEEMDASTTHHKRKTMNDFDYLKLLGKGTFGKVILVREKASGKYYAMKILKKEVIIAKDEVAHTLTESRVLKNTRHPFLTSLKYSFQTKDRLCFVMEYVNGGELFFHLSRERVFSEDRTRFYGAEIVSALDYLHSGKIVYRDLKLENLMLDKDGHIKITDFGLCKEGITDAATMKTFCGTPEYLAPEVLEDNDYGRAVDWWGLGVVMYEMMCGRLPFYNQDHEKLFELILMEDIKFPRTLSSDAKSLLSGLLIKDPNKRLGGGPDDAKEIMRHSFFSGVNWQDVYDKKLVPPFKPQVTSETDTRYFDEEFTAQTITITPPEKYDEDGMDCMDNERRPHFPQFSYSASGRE
T1 sequence (P51813 417-675 limits assumed): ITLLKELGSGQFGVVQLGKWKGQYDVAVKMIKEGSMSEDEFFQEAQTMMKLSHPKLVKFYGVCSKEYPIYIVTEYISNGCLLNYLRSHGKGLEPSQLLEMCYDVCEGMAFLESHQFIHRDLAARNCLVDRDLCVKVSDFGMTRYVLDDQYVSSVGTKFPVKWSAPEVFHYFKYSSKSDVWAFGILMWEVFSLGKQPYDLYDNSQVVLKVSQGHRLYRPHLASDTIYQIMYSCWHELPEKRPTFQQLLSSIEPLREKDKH
Description for AKT2: as §1, §2
Description for AKT3: as §1, §2
Description for ERBB4: (§3) Therefore, we included the whole TEC, EGFR and JAK family in our screening, and the Src family and Lkb1, which also have a cysteine within the same sequence alignment.
as §2
Description for PIK3CG: as §1, §2
Description for PTK2: as §1, §2
Description for STK11: as §1, §2
Description for YES1: as §3, §2

As for `C=CC(=O)Nc1cc(C)cc(-n2c(=O)ccc3cnc4cc(-c5ccc(NS(C)(=O)=O)cc5)ccc4c32)c1` [JS25], the remaining binding at 1 µM at AKT3 was 99%; on PTK2 it was 93%; at STK11 it was 52%; on PIK3CG, 64%; at ERBB4, 66%; at AKT2, 94%. Further, the remaining binding at 1 µM on YES1 turned out to be 85%; in assay [1], 100%.
For `C=CC(=O)Nc1cc(-n2c(=O)ccc3cnc4cc(-c5ccc(NS(C)(=O)=O)cc5)ccc4c32)ccc1C` [JS24], the “site of covalent modification of hBMX” value at hBMX is recorded as “covalent modification at cysteine residue 496”. For the same molecule, the GI50 was 5.48 µM with Jurkat, 7.28 ± 0.37 µM in the assay with H1299, 5.12 ± 0.12 µM in the assay with Kasumi and 5.04 ± 0.01 µM in the assay with U-87MG.
